Test results: publication PMC5951806, “Rapid labelling and covalent inhibition of intracellular native proteins using ligand-directed N-acyl-N-alkyl sulfonamide” (Nature Communications, 2018)

What was measured:
Test in all cases: TMT LC-MSMS of 11-labelled proteins
Alpha-actinin-4 (ACTN4) = Alpha-actinin-4 (ACTN4) (Homo sapiens, UniProt O43707); format: cell-based
From the text: (§1) Supplement 41467_2018_4343_MOESM4_ESM.xlsx, sheet "Exp2" | column: Abundance Ratio: (11) / (11 with PU-H71); Abundance Ratio: (11) / (DMSO); Abundances (Grouped): 11; Abundances (Grouped): 11 with PU-H71

[1] = biological target: T1, Phosphate carrier protein, mitochondrial (SLC25A3) (Homo sapiens, UniProt Q00325); format: cell-based
T1 sequence (Q00325 50-362): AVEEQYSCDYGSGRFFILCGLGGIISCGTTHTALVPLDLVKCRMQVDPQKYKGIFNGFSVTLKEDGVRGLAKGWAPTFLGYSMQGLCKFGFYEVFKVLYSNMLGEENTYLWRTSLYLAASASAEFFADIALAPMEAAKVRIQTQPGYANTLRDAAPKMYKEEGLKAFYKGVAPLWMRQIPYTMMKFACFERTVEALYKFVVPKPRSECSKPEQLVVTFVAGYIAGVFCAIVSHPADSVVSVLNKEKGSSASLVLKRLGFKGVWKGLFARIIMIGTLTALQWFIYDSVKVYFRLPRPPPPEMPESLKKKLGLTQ
From the text: as §1

[2] = tested on: immunoglobulin gamma-1 heavy chain; format: cell-based, Homo sapiens
From the text: as §1

[3] = tested on: Isoform Long of Glucose-6-phosphate 1-dehydrogenase (G6PD); format: cell-based, Homo sapiens
From the text: (§2) The labelled proteins were enriched by immunoprecipitation with an anti-fluorescein antibody and tryptically digested in gel. Digested peptides were modified with Light- (L-), Medium- (M-), or Heavy- (H-) TMT reagent for samples treated with 11, 11 with PU-H71 (as competitive condition), or DMSO (vehicle), respectively, and mixed in a 1:1:1 ratio for LC-MSMS analysis. We performed three experimental replicates, in which proteins detected and quantified at least twice were selected as identified proteins. According to the related approach of Cravatt et al[44], the proteins having L/H (11/DMSO) ratios >5 were defined as 11-labelled proteins. […] On the basis of these criteria, we identified 6 proteins that react with 11, including three ligand-specific targets (Hsp90α (HSP90AA1), Hsp90β (HSP90AB1), and Grp94 (HSP90B1)) and three off-targets (Trifunctional enzyme subunit α (HADHA), Tubulin-α (TUBA1B), and ADP/ATP translocase 3 (SLC25A6)) (Fig. 5d, e and Supplementary Data 1). […] Grp94, a HSP90 isomer, was previously reported to be a PU-H71 specific target. TRAP-1, another Hsp90 isomer that can bind PU-H71, on the other hand, was not identified as 11-target by our criteria.
(§3) SKBR3 human breast cancer cells (2.0 × 10^6 cells) were seeded on a 10 cm dish and cultured for 3 days in McCoy’s 5A in a 5% CO2 humidified chamber at 37 °C. […] As competitive experiments, the labelling was conducted in the presence of PU-H71 (10 µM). After labelling, the cells were washed twice with PBS, and lysed with RIPA buffer. […] The supernatant was mixed with chilled acetone and incubated overnight at −80 °C. The protein precipitates were solubilized by sonication in 1 mL of RIPA buffer containing 1% SDS, and then 10-fold diluted with RIPA buffer to reduce SDS concentration to c.a. 0.1%. The protein solution (containing 1 mg of protein) was mixed with Protein G Sepharose 4 Fast Flow (GE Healthcare) and rotated at 4 °C for 1 h. After removal of the beads, the remaining supernatant was mixed with anti-fluorescein antibody (Abcam, ab19491, 7:10000) and rotated at 4 °C for 1 h, followed by addition of fresh Protein G Sepharose 4 Fast Flow and further incubation at 4 °C for 4 h. The beads were washed five times with RIPA buffer and once with PBS. Proteins were eluted from the beads by addition of 2 × sample buffer containing 100 mM DTT and boiling at 95 °C for 5 min. The samples were subjected to a 7.5% SDS–PAGE gel (Mini-PROTEAN TGX Gels, BioRad), and electrophoresed as the migration distance of dye front is about 10 mm. Each lane was excised (height, 10 mm), and treated with a 47.5% methanol / 47.5% pure water / 5% acetic acid for 20 min, a 50% methanol / 50% pure water for 10 min, and in pure water for 10 min. The gel pieces were dehydrated with 100% acetonitrile, and then swelled with 200 μL of 100 mM TEAB (triethylamine bicarbonate) buffer containing 10 mM DTT and heated at 56 °C for 30 min. The solutions were replaced with 200 µL of 100 mM TEAB buffer containing 55 mM iodoacetamide and incubated for 45 min in the dark. The gel pieces were washed with 100 mM TEAB buffer and dehydrated in acetonitrile. This step was repeated once. The gels were reswelled in 100 mM TEAB buffer containing 10 ng/μL Sequencing Grade Trypsin (Promega) and incubated overnight at 37 °C. To the gels, 50 μL of an extraction solution (50% acetonitrile, 0.1% TFA) was added. After 10 min incubation, the supernatants were collected to new tubes, and this process was repeated twice. Extracted peptides were dried in vacuo and reconstituted with 25 μL of 100 mM TEAB buffer.

[4] = tested on: Isoform 4 of 4F2 cell-surface antigen heavy chain (SLC3A2); format: cell-based, Homo sapiens
From the text: as §2, §3

[5] = tested on: Isoform 2 of Transketolase (TKT); format: cell-based, Homo sapiens
From the text: as §2, §3

[6] = sheet Exp1, SKBR3 cells, 11 0.5 µM 3 h vs DMSO
[7] = sheet Exp1, SKBR3 cells, 11 0.5 µM 3 h vs with PU-H71 10 µM
[8] = sheet Merged, SKBR3 cells, 11 0.5 µM 3 h vs DMSO
[9] = sheet Merged, SKBR3 cells, 11 0.5 µM 3 h vs with PU-H71 10 µM

Chain of Alpha-actinin-4 (ACTN4) (O43707 whole entry): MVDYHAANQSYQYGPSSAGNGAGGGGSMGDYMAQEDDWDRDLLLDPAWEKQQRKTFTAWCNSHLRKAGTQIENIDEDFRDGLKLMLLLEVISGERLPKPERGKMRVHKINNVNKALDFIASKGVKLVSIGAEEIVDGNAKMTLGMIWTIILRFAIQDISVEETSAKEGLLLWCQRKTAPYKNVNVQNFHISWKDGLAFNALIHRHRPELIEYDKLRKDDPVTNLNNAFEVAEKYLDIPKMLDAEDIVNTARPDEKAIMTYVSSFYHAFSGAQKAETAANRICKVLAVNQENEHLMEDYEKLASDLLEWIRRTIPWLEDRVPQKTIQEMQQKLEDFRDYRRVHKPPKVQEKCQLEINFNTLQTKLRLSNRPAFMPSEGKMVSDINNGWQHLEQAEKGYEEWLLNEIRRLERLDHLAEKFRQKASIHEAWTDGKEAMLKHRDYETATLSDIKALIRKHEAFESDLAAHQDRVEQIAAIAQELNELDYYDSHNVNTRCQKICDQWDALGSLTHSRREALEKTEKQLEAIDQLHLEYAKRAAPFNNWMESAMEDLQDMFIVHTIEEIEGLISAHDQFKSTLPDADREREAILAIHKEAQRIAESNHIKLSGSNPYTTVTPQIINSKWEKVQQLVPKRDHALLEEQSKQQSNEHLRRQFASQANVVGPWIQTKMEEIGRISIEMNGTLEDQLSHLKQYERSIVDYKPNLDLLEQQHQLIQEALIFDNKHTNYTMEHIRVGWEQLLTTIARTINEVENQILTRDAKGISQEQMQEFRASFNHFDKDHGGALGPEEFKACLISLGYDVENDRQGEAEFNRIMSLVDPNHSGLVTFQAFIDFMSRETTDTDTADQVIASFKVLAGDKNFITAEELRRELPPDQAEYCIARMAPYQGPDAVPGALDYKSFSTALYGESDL

- Abundance Ratio: (11) / (11 with PU-H71) (Alpha-actinin-4 (ACTN4); sheet Exp2): 0.876
- Abundance Ratio: (11) / (DMSO) (Alpha-actinin-4 (ACTN4); sheet Exp2): 1.667
- Abundances (Grouped): 11 (Alpha-actinin-4 (ACTN4); sheet Exp2): 24
- Abundances (Grouped): 11 with PU-H71 (Alpha-actinin-4 (ACTN4); sheet Exp2, with PU-H71): 27.4
- Abundance Ratio: (11) / (11 with PU-H71) ([1]; sheet Exp2): 0.7
- Abundance Ratio: (11) / (DMSO) ([1]; sheet Exp2): 2.264
- Abundances (Grouped): 11 ([1]; sheet Exp2): 124.5
- Abundances (Grouped): 11 with PU-H71 ([1]; sheet Exp2, with PU-H71): 177.9
Structure (SMILES): CC(=O)Oc1ccc2c(c1)Oc1cc(OC(C)=O)ccc1C21OC(=O)c2cc(C(=O)NCCOCCOCCNC(=O)CCCC(=O)N(CC#N)S(=O)(=O)c3ccc(C(=O)NCCCn4c(Sc5cc6c(cc5I)OCO6)nc5c(N)ncnc54)cc3)ccc21 [compound 11]
- Abundance Ratio: (11) / (11 with PU-H71) ([2]; sheet Exp2): 0.821
- Abundance Ratio: (11) / (DMSO) ([2]; sheet Exp2): 0.807
- Abundances (Grouped): 11 ([2]; sheet Exp2): 7483.9
- Abundances (Grouped): 11 with PU-H71 ([2]; sheet Exp2, with PU-H71): 9110.6
- Abundance Ratio: (11) / (DMSO) [3, 6]: 6.472
- Abundance Ratio: (11) / (11 with PU-H71) [3, 7]: 0.948
- Abundance Ratio: (11) / (11 with PU-H71) ([3]; sheet Exp2, G6PD): 0.848
- Abundance Ratio: (11) / (DMSO) ([3]; sheet Exp2, G6PD): 1.663
- Abundances (Grouped): 11 ([3]; sheet Exp2, G6PD): 63.2
- Abundances (Grouped): 11 with PU-H71 ([3]; sheet Exp2, G6PD, with PU-H71): 74.5
- Abundance Ratio: (11) / (DMSO) [3, 8]: 3.281
- Abundance Ratio: (11) / (11 with PU-H71) [3, 9]: 0.897
- Abundance Ratio: (11) / (11 with PU-H71) ([4]; Exp3, SLC3A2): 0.823
- Abundance Ratio: (11) / (DMSO) ([4]; Exp3, SLC3A2): 3.728
- Abundances (Grouped): 11 ([4]; Exp3, SLC3A2): 115.2
- Abundances (Grouped): 11 with PU-H71 ([4]; Exp3, SLC3A2): 140
- Abundance Ratio: (11) / (DMSO) [4, 6]: 3.951
- Abundance Ratio: (11) / (11 with PU-H71) [4, 7]: 0.737
- Abundance Ratio: (11) / (11 with PU-H71) ([4]; sheet Exp2, SLC3A2): 0.802
- Abundance Ratio: (11) / (DMSO) ([4]; sheet Exp2, SLC3A2): 3.119
- Abundances (Grouped): 11 ([4]; sheet Exp2, SLC3A2): 91.7
- Abundances (Grouped): 11 with PU-H71 ([4]; sheet Exp2, SLC3A2): 114.4
- Abundance Ratio: (11) / (DMSO) [4, 8]: 3.119
- Abundance Ratio: (11) / (11 with PU-H71) [4, 9]: 0.802
- Abundance Ratio: (11) / (11 with PU-H71) ([5]; Exp3, TKT): 0.724
- Abundance Ratio: (11) / (DMSO) ([5]; Exp3, TKT): 1.695
- Abundances (Grouped): 11 ([5]; Exp3, TKT): 45.6
- Abundances (Grouped): 11 with PU-H71 ([5]; Exp3, TKT): 63
- Abundance Ratio: (11) / (DMSO) [5, 6]: 2.131
- Abundance Ratio: (11) / (11 with PU-H71) [5, 7]: 0.917
- Abundance Ratio: (11) / (11 with PU-H71) ([5]; sheet Exp2, TKT): 0.939
- Abundance Ratio: (11) / (DMSO) ([5]; sheet Exp2, TKT): 2.163
- Abundances (Grouped): 11 ([5]; sheet Exp2, TKT): 103.4
- Abundances (Grouped): 11 with PU-H71 ([5]; sheet Exp2, TKT): 110.1
- Abundance Ratio: (11) / (DMSO) [5, 8]: 2.131
- Abundance Ratio: (11) / (11 with PU-H71) [5, 9]: 0.917
